Literature values, collected in patent US6262080A, “3-(thio-substitutedamido)-lactams useful as inhibitors of matrix metalloproteinase” (Avantis Pharmaceuticals Inc., priority 1999, dated 2001).

System: B16-BL6 murine melanoma
Conditions: intraperitoneal administration; lung colonies produced by intravenous injection of B16-BL6 murine melanoma in C57BL/6N mice

## CNC(=O)[C@H](Cc1ccccc1)NC(=O)[C@H](CC(C)C)[C@H](CSc1cccs1)C(=O)NO [batimastat]
  growth and metastatic spread and number of lung colonies: significant inhibition
